Reference: patent US6011000A, “Compositions for the treatment of blood disorders” (priority 1995, dated 2000)

Legend:
[1] = test system: fetal reticulocyte production; details: cited from earlier work
globin expression = details: cited from earlier work
fetal globin synthesis = details: cited from earlier work
Friend leukemia cells = details: cited from earlier work
[2] = test system: fetal globin expression in K562 human erythroleukemia cells; details: cited from earlier work
fetal globin = details: pharmacological doses, phenylhydrazine-anemic chickens; cited from earlier work
[3] = test system: human fetal (γ) globin gene; details: cited from earlier work
histone acetylation = details: cited from earlier work
[4] = test system: fetal globin synthesis in tissue culture cells; details: cited from earlier work
[5] = test system: fetal globin synthesis in erythroid progenitors; details: cited from earlier work
[6] = test system: gamma globin (erythroblasts of sickle cell anemia patients); assay: Induction of fetal globin in erythroblasts by steel factor; format: cell-based, human; details: 100 ng/ml
Protocol: Peripheral blood was obtained from patients with sickle cell anemia. Mononuclear cells were isolated on Ficoll-Hypaque gradients. One culture was treated with 100 ng/ml steel factor for 13 days and compared with an untreated control. […] A second culture was incubated overnight with an identical dose of steel factor plus ^3 H-leucine. Amounts of labeled globin proteins synthesized in untreated (FIG. 5A) and steel factor treated (FIG. 5B) cells were determined by autoradiography and quantitated (scanned) by laser densitometry.

anemic baboon = assay: In vivo reticulocyte proliferation, globin expression and blood counts in anemic (phlebotomized) baboons; details: for Fetal reticulocytes: baseline 4%
Protocol: Experiments were performed to determine if administration of the chemical compositions could induce fetal globin gene expression in an in vivo model similar to humans (S. P. Perrine et al., Brit. J. Haematol. 88:555-61, 1994). Briefly, chemicals were prepared as sterile pharmaceutical solutions in pH adjusted sterile water. A variety of chemical compositions were administered sequentially to some baboons. After administration of one compound, a wash-out period with no compound administration was maintained until reticulocytes returned to base line prior to administration of the next compound. This was done, at least partly, to compare the magnitude of response which occurred within the same individual animal to different compounds.
Briefly, juvenile female baboons (2 years old) were catheterized with arterial and venous catheters and phlebotomized gradually every day to maintain a moderate anemia of 7.0 to 7.5 grams hemoglobin/dl. Fetal reticulocytes, the newly produced red blood cells containing fetal globin, were assayed using a monoclonal antibody against fetal globin (HbF) as described by G. Dover et al. (Blood 67:735-38, 1986). Briefly, blood was stained with two antibodies, one specific for reticulocytes and another against fetal globin protein. The amount of antibody bound cells was determined by FACS analysis. Globin chain synthesis was assayed as described by J. B. Clegg et al. (J. Mol. Biol. 19:91-108, 1966). Briefly, reticulocytes were radio-labeled with ^3 H-leucine which was incorporated in equal proportions into actively synthesized globin chains. After incubation in leucine-free media, cells were washed, and globin proteins were separated and purified by column chromatography. Radioactivity incorporated into each peak is compared and the ratios of gamma to gamma plus beta globin calculated. Each animal served as its own control with baseline monitoring assays performed for 4-6 weeks before any drug was administered. Phlebotomy was continued daily, so that peripheral HbF levels in the animals were not considered to be accurate over the short treatment time-frames and were not monitored. Safety monitoring was performed by frequent physical examinations, quantitation of food eaten, activity and frequent chemistry and hematology monitoring. Complete blood counts were assayed before, during and after treatment. Results presented were not adjusted to account for the daily phlebotomy.

[7] = test system: cultured human erythrocytes; details: cited from earlier work
[8] = 25 and 100 μg/kg s.c., undetectable before treatment

Nc1ccn([C@@H]2O[C@H](CO)[C@@H](O)[C@@H]2O)c(=O)n1 [AraC, cytosine arabinoside]
fetal reticulocyte production [1]: induces fetal reticulocyte production

NC(=O)NO [Hydroxyurea]
specificity to fetal globin (globin expression): did not appear to be very specific to fetal globin

CC(=O)O [acetate]
duration of positive effects (fetal globin synthesis): positive effects could only be maintained for very short periods of time
erythrocyte precursor populations and fetal globin synthesis (fetal globin synthesis): increased both erythrocyte precursor populations and also fetal globin synthesis
hemoglobin synthesis (Friend leukemia cells): induced hemoglobin synthesis

CCCC(=O)O [butyric acid]
increase of fetal globin expression [2]: much less of an effect
expression of fetal globin (fetal globin): greatly increased expression of fetal globin
transcription of the human fetal (γ) globin gene [3]: accurately and specifically stimulated transcription of the human fetal (γ) globin gene
level of histone acetylation (histone acetylation): may act by increasing the level of histone acetylation
hemoglobin synthesis (Friend leukemia cells): induced hemoglobin synthesis

CCC(=O)O [propionate]
increase of fetal globin expression [2]: most effective
hemoglobin synthesis (Friend leukemia cells): induced hemoglobin synthesis

GM-CSF: granulocyte/macrophage-colony stimulating factor (GM-CSF)
fetal globin synthesis [4]: increase fetal globin synthesis in tissue culture cells

steel factor: hematopoietic factor, steel factor, also referred to as kit ligand, mast cell growth factor and stem cell factor
fetal globin synthesis [5]: capable of influencing fetal globin synthesis in erythroid progenitors
mean increase in gamma globin expression ([6]; 13 days, vs untreated control): 16.1%
gamma globin expression in BFU-e cells ([6]; 13 days, from 14%): 23.3%
globin proteins included in the increase ([6]; overnight): included both G-γ and A-γ globin proteins
Gamma globin expression ([6]; overnight + 3H-leucine, untreated 17.6%): 43.3%
Fetal reticulocytes (anemic baboon; 25 μg/kg s.c. daily, 4 days (FIG. 10)): 15%
Fetal reticulocytes (anemic baboon; 100 μg/kg s.c., four days, after wash-out): 12%
rise in numbers of newly-formed blood cells producing fetal globin (anemic baboon; 25 and 100 μg/kg s.c.): 300-500%
total increase of gamma globin expression in the bone marrow (anemic baboon; 25 and 100 μg/kg s.c.): 9 fold
fetal globin chain protein (anemic baboon; [8]): about 3 % of total non-alpha globin
rise in fetal globin chain protein (anemic baboon; [8]): 3 fold

B1: activin: Activin, sometimes referred to as erythroid differentiating factor (EDF) (protein, UniProt P08476 311-426, looked up)
Inhibin beta A chain: GLECDGKVNICCKKQFFVSFKDIGWNDWIIAPSGYHANYCEGECPSHIAGTSGSSLSFHSTVINHYRMRGHSPFANLKSCCVPTKLRPMSMLYYDDGQNIIKKDIQNMIVEECGCS
modifications: Inhibin beta A chain
hemoglobin accumulation [7]: induced hemoglobin accumulation in cultured human erythrocytes

B2: inhibin: Inhibin, a disulfide linked hormone of two subunits (protein, UniProt P05111 233-366; P08476 311-426, looked up)
Inhibin alpha chain: STPLMSWPWSPSALRLLQRPPEEPAAHANCHRVALNISFQELGWERWIVYPPSFIFHYCHGGCGLHIPPNLSLPVPGAPPTPAQPYSLLPGAQPCCAALPGTMRPLHVRTTSDGGYSFKYETVPNLLTQHCACI
Inhibin beta A chain: GLECDGKVNICCKKQFFVSFKDIGWNDWIIAPSGYHANYCEGECPSHIAGTSGSSLSFHSTVINHYRMRGHSPFANLKSCCVPTKLRPMSMLYYDDGQNIIKKDIQNMIVEECGCS
hemoglobin accumulation [7]: induced hemoglobin accumulation in cultured human erythrocytes
